In the supplement of paper PMC9663587:

Columns and labels:
Flavopiridol = compound: CN1CC[C@H](c2c(O)cc(O)c3c(=O)cc(-c4ccccc4Cl)oc23)[C@H](O)C1 [Flavopiridol]; experiment: GR value, 72 h; higher = faster growth (1 = untreated, <0 = killing);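 note: breast cancer and non-malignant breast epithelial lines, nine half-log doses, viable cells counted by Hoechst and LIVE/DEAD dye imaging versus time-zero plates and DMSO controls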
YKL-5-124 = compound: C=CC(=O)Nc1ccc(C(=O)Nc2[nH]nc3c2CN(C(=O)N[C@H](CN(C)C)c2ccccc2)C3(C)C)cc1 [YKL-5-124]; experiment: as above
[1] = compound: CCc1cnn2c(NCc3ccc[n+]([O-])c3)cc(N3CCCC[C@H]3CCO)nc12; experiment: as above
THZ531 = compound: CN(C)C/C=C/C(=O)Nc1ccc(C(=O)N2CCC[C@@H](Nc3ncc(Cl)c(-c4c[nH]c5ccccc45)n3)C2)cc1 [THZ531]; experiment: as above
LEE011/Ribociclib = compound: CN(C)C(=O)c1cc2cnc(Nc3ccc(N4CCNCC4)cn3)nc2n1C1CCCC1 [LEE011/Ribociclib]; experiment: as above
[2] = compound: CCN1CCN(Cc2ccc(Nc3ncc(F)c(-c4cc(F)c5nc(C)n(C(C)C)c5c4)n3)nc2)CC1; experiment: as above
[3] = compound: CC(=O)c1c(C)c2cnc(Nc3ccc(N4CCNCC4)cn3)nc2n(C2CCCC2)c1=O; experiment: as above
THZ1 = compound: CN(C)C/C=C/C(=O)Nc1ccc(C(=O)Nc2cccc(Nc3ncc(Cl)c(-c4c[nH]c5ccccc45)n3)c2)cc1 [THZ1]; experiment: as above
Vorinostat = compound: O=C(CCCCCCC(=O)Nc1ccccc1)NO [Vorinostat]
SHP099 = compound: CC1(CCN(CC1)C2=CN=C(C(=N2)N)C3=C(C(=CC=C3)Cl)Cl)N [SHP099]
[4] = compound: CCc1cnn2c(NCc3ccc[n+]([O-])c3)cc(N3CCCC[C@H]3CCO)nc12
Buparlisib/NVP-BKM120 = compound: Nc1cc(C(F)(F)F)c(-c2cc(N3CCOCC3)nc(N3CCOCC3)n2)cn1 [Buparlisib/NVP-BKM120]
Paclitaxel = compound: CC(=O)O[C@H]1C(=O)[C@@]2(C)[C@H]([C@H](OC(=O)c3ccccc3)[C@]3(O)C[C@H](OC(=O)[C@H](O)[C@@H](NC(=O)c4ccccc4)c4ccccc4)C(C)=C1C3(C)C)[C@]1(OC(C)=O)CO[C@@H]1C[C@@H]2O [Paclitaxel]
BSJ-03-123 = compound: CC(=O)c1c(C)c2cnc(Nc3ccc(N4CCN(CCOCCOCCOCCNC(=O)COc5cccc6c5C(=O)N(C5CCC(=O)NC5=O)C6=O)CC4)cn3)nc2n(C2CCCC2)c1=O [BSJ-03-123]
[5] = compound: CCN1CCN(Cc2ccc(Nc3ncc(F)c(-c4cc(F)c5nc(C)n(C(C)C)c5c4)n3)nc2)CC1
Cabozantinib = compound: COc1cc2nccc(Oc3ccc(NC(=O)C4(C(=O)Nc5ccc(F)cc5)CC4)cc3)c2cc1OC [Cabozantinib]
AZD5363 = compound: NC1(C(=O)N[C@@H](CCO)c2ccc(Cl)cc2)CCN(c2nc[nH]c3nccc2-3)CC1 [AZD5363]
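Throughout, for GR50, 72 h: breast cancer and non-malignant breast epithelial cell lines, Deep Dye Drop or Dye Drop imaging, nine half-log doses, GR normalized to time-zero plates and DMSO-only controls.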

CAL120
GR value (Flavopiridol; 0.0001 µM): 0.984 GR
GR value (Flavopiridol; 0.0003162 µM): 0.934 GR
GR value (Flavopiridol; 0.001 µM): 0.919 GR
GR value (Flavopiridol; 0.003162 µM): 0.917 GR
GR value (Flavopiridol; 0.01 µM): 0.901 GR
GR value (Flavopiridol; 0.03162 µM): 0.88 GR
GR value (Flavopiridol; 0.1 µM): 0.719 GR
GR value (Flavopiridol; 0.3162 µM): 0.342 GR
GR value (Flavopiridol; 1 µM): -0.0548 GR
GR value (YKL-5-124; 0.001 µM): 0.776 GR
GR value (YKL-5-124; 0.003162 µM): 0.599 GR
GR value (YKL-5-124; 0.01 µM): 0.467 GR
GR value (YKL-5-124; 0.03162 µM): 0.385 GR
GR value (YKL-5-124; 0.1 µM): 0.377 GR
GR value (YKL-5-124; 0.3162 µM): 0.313 GR
GR value (YKL-5-124; 1 µM): 0.328 GR
GR value (YKL-5-124; 3.162 µM): 0.324 GR
GR value (YKL-5-124; 10 µM): 0.187 GR
GR value ([1]; 0.0001 µM): 1.01 GR
GR value ([1]; 0.0003162 µM): 0.995 GR
GR value ([1]; 0.001 µM): 1.03 GR
GR value ([1]; 0.003162 µM): 1.01 GR
GR value ([1]; 0.01 µM): 0.495 GR
GR value ([1]; 0.03162 µM): -0.0996 GR
GR value ([1]; 0.1 µM): -0.125 GR
GR value ([1]; 0.3162 µM): -0.129 GR
GR value ([1]; 1 µM): -0.116 GR
GR value (THZ531; 0.0001 µM): 1.03 GR
GR value (THZ531; 0.0003162 µM): 1.03 GR
GR value (THZ531; 0.001 µM): 0.934 GR
GR value (THZ531; 0.003162 µM): 1.04 GR
GR value (THZ531; 0.01 µM): 1.06 GR
GR value (THZ531; 0.03162 µM): 0.891 GR
GR value (THZ531; 0.1 µM): 0.589 GR
GR value (THZ531; 0.3162 µM): 0.275 GR
GR value (THZ531; 1 µM): -0.0063 GR
GR value (LEE011/Ribociclib; 0.001 µM): 0.879 GR
GR value (LEE011/Ribociclib; 0.003162 µM): 0.818 GR
GR value (LEE011/Ribociclib; 0.01 µM): 0.765 GR
GR value (LEE011/Ribociclib; 0.03162 µM): 0.809 GR
GR value (LEE011/Ribociclib; 0.1 µM): 0.703 GR
GR value (LEE011/Ribociclib; 0.3162 µM): 0.732 GR
GR value (LEE011/Ribociclib; 1 µM): 0.646 GR
GR value (LEE011/Ribociclib; 3.162 µM): 0.631 GR
GR value (LEE011/Ribociclib; 10 µM): 0.664 GR
GR value ([2]; 0.001 µM): 0.93 GR
GR value ([2]; 0.003162 µM): 0.85 GR
GR value ([2]; 0.01 µM): 0.715 GR
GR value ([2]; 0.03162 µM): 0.659 GR
GR value ([2]; 0.1 µM): 0.609 GR
GR value ([2]; 0.3162 µM): 0.594 GR
GR value ([2]; 1 µM): 0.377 GR
GR value ([2]; 3.162 µM): -0.0553 GR
GR value ([2]; 10 µM): -0.138 GR
GR value ([3]; 0.0003162 µM): 1.02 GR
GR value ([3]; 0.001 µM): 1.01 GR
GR value ([3]; 0.003162 µM): 0.992 GR
GR value ([3]; 0.01 µM): 0.953 GR
GR value ([3]; 0.03162 µM): 0.815 GR
GR value ([3]; 0.1 µM): 0.756 GR
GR value ([3]; 0.3162 µM): 0.761 GR
GR value ([3]; 1 µM): 0.743 GR
GR value ([3]; 3.162 µM): 0.671 GR
GR value (THZ1; 0.0001 µM): 1.02 GR
GR value (THZ1; 0.0003162 µM): 0.971 GR
GR value (THZ1; 0.001 µM): 0.979 GR
GR value (THZ1; 0.003162 µM): 0.92 GR
GR value (THZ1; 0.01 µM): 0.938 GR
GR value (THZ1; 0.03162 µM): 0.656 GR
GR value (THZ1; 0.1 µM): 0.324 GR
GR value (THZ1; 0.3162 µM): 0.154 GR
GR value (THZ1; 1 µM): -0.159 GR
GR50, 72 h (Vorinostat): 1.35 µM
GR50, 72 h (SHP099): > 10 µM
GR50, 72 h [4]: 0.00989 µM
GR50, 72 h (Buparlisib/NVP-BKM120): 0.702 µM
GR50, 72 h (Paclitaxel): 0.00288 µM
GR50, 72 h (BSJ-03-123): 5.27 µM
GR50, 72 h [5]: 0.247 µM
GR50, 72 h (Cabozantinib): 7.34 µM
GR50, 72 h (AZD5363): > 10 µM

PDX1328
GR value (Flavopiridol; 0.0001 µM): 1.06 GR
GR value (Flavopiridol; 0.0003162 µM): 1.06 GR
GR value (Flavopiridol; 0.001 µM): 0.963 GR
GR value (Flavopiridol; 0.003162 µM): 0.955 GR
GR value (Flavopiridol; 0.01 µM): 1.01 GR
GR value (Flavopiridol; 0.03162 µM): 1.08 GR
GR value (Flavopiridol; 0.1 µM): 0.909 GR
GR value (Flavopiridol; 0.3162 µM): 0.239 GR
GR value (Flavopiridol; 1 µM): -0.603 GR
GR value (YKL-5-124; 0.001 µM): 0.525 GR
GR value (YKL-5-124; 0.003162 µM): 0.572 GR
GR value (YKL-5-124; 0.01 µM): 0.406 GR
GR value (YKL-5-124; 0.03162 µM): 0.424 GR
GR value (YKL-5-124; 0.1 µM): 0.45 GR
GR value (YKL-5-124; 0.3162 µM): 0.301 GR
GR value (YKL-5-124; 1 µM): 0.351 GR
GR value (YKL-5-124; 3.162 µM): 0.295 GR
GR value (YKL-5-124; 10 µM): -0.0349 GR
GR value ([1]; 0.0001 µM): 1.05 GR
GR value ([1]; 0.0003162 µM): 1.11 GR
GR value ([1]; 0.001 µM): 1.06 GR
GR value ([1]; 0.003162 µM): 1.05 GR
GR value ([1]; 0.01 µM): 0.907 GR
GR value ([1]; 0.03162 µM): -0.453 GR
GR value ([1]; 0.1 µM): -0.581 GR
GR value ([1]; 0.3162 µM): -0.571 GR
GR value ([1]; 1 µM): -0.53 GR
GR value (THZ531; 0.0001 µM): 0.957 GR
GR value (THZ531; 0.0003162 µM): 0.973 GR
GR value (THZ531; 0.001 µM): 0.939 GR
GR value (THZ531; 0.003162 µM): 1.11 GR
GR value (THZ531; 0.01 µM): 0.84 GR
GR value (THZ531; 0.03162 µM): 0.788 GR
GR value (THZ531; 0.1 µM): 0.153 GR
GR value (THZ531; 0.3162 µM): -0.45 GR
GR value (THZ531; 1 µM): -0.532 GR
GR value (LEE011/Ribociclib; 0.001 µM): 0.927 GR
GR value (LEE011/Ribociclib; 0.003162 µM): 0.816 GR
GR value (LEE011/Ribociclib; 0.01 µM): 0.661 GR
GR value (LEE011/Ribociclib; 0.03162 µM): 0.649 GR
GR value (LEE011/Ribociclib; 0.1 µM): 0.481 GR
GR value (LEE011/Ribociclib; 0.3162 µM): 0.514 GR
GR value (LEE011/Ribociclib; 1 µM): 0.528 GR
GR value (LEE011/Ribociclib; 3.162 µM): 0.394 GR
GR value (LEE011/Ribociclib; 10 µM): 0.425 GR
GR value ([2]; 0.001 µM): 0.866 GR
GR value ([2]; 0.003162 µM): 0.775 GR
GR value ([2]; 0.01 µM): 0.537 GR
GR value ([2]; 0.03162 µM): 0.323 GR
GR value ([2]; 0.1 µM): 0.266 GR
GR value ([2]; 0.3162 µM): 0.301 GR
GR value ([2]; 1 µM): 0.263 GR
GR value ([2]; 3.162 µM): 0.176 GR
GR value ([2]; 10 µM): -0.621 GR
GR value ([3]; 0.0003162 µM): 1.04 GR
GR value ([3]; 0.001 µM): 1.1 GR
GR value ([3]; 0.003162 µM): 1.06 GR
GR value ([3]; 0.01 µM): 0.938 GR
GR value ([3]; 0.03162 µM): 0.751 GR
GR value ([3]; 0.1 µM): 0.557 GR
GR value ([3]; 0.3162 µM): 0.518 GR
GR value ([3]; 1 µM): 0.414 GR
GR value ([3]; 3.162 µM): 0.399 GR
GR value (THZ1; 0.0001 µM): 0.984 GR
GR value (THZ1; 0.0003162 µM): 1.06 GR
GR value (THZ1; 0.001 µM): 1.11 GR
GR value (THZ1; 0.003162 µM): 0.868 GR
GR value (THZ1; 0.01 µM): 0.532 GR
GR value (THZ1; 0.03162 µM): -0.0495 GR
GR value (THZ1; 0.1 µM): -0.397 GR
GR value (THZ1; 0.3162 µM): -0.435 GR
GR value (THZ1; 1 µM): -0.711 GR
GR50, 72 h (Vorinostat): 0.687 µM
GR50, 72 h (SHP099): > 10 µM
GR50, 72 h [4]: 0.0148 µM
GR50, 72 h (Buparlisib/NVP-BKM120): 0.528 µM
GR50, 72 h (Paclitaxel): 0.00287 µM
GR50, 72 h [5]: 0.0288 µM
GR50, 72 h (Cabozantinib): 6.29 µM
GR50, 72 h (AZD5363): > 10 µM
